Among the data in patent US10377770B2 (Novartis AG, priority 2015, dated 2019) are IC50 values, retold here.

The target in this assay is C-Raf FL (full length CRAF with Y340E and Y341E activating mutations, co-expressed with h14-3-3 zeta) (Homo sapiens (Human), UniProt P04049, Y340E/Y341E). As to the kind of experiment: In vitro Raf activity determination, AlphaScreen p-MEK readout, c-Raf (C-Raf FL). Format: biochemical. The following applies: c-Raf approximately 4 nM, ATP 1 μM, pre-incubation 60 minutes, reaction 1 hour. The method in brief: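 Phosphorylation of kinase-dead biotinylated MEK1 (~10 nM) by C-Raf FL (~4 nM) read by AlphaScreen luminescence with anti-phospho-MEK1/2 after EDTA stop. ATP was 1 μM, with a 1 h reaction at room temperature. Compounds were pre-incubated with enzyme and substrate for 60 min in Tris/MgCl2 buffer, pH 7.5.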
C-Raf FL (full length CRAF with Y340E and Y341E activating mutations, co-expressed with h14-3-3 zeta), sequence (P04049 whole entry Y340E/Y341E): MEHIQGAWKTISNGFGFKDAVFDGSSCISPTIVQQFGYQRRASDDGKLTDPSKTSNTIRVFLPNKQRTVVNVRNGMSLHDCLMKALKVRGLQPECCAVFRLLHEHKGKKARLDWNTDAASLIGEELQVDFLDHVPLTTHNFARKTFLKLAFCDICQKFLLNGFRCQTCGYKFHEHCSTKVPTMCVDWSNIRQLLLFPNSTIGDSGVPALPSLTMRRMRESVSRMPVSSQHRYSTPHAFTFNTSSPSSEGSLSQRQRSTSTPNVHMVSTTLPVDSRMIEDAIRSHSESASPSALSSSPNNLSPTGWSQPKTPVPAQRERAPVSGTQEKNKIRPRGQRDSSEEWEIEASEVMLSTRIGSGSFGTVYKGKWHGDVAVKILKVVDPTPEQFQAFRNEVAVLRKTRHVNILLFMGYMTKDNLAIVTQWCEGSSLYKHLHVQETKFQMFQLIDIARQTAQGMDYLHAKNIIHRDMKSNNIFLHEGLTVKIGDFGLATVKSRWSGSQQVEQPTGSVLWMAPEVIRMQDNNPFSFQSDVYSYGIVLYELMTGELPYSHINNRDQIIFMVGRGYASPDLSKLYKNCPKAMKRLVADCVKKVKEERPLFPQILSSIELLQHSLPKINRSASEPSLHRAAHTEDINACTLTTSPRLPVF
C-Raf FL (full length CRAF with Y340E and Y341E activating mutations, co-expressed with h14-3-3 zeta), sequence (P63104 whole entry partner): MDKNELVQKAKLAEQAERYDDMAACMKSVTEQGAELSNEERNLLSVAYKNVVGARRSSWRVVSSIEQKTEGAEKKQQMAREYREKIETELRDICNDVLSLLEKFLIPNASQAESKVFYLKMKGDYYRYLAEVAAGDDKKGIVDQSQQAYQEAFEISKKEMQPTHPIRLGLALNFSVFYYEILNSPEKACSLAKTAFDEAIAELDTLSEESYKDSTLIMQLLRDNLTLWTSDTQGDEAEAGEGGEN

A word on the IC50: it is the point on the concentration scale where inhibition reaches its midpoint. Low readings indicate inhibition by little substance, high ones a need for much substance.

As for `Cc1ccc(NC(=O)c2ccnc(C(C)(F)F)c2)cc1-c1ccc2c(c1)N1CCOC[C@H]1[C@](C)(N)C2` (racemic) [Example 92, (rac)-(syn)-N-(3-(5-amino-5-methyl-1,2,4,4a,5,6-hexahydro-[1,4]oxazino[4,3-a]quinolin-9-yl)-4-methylphenyl)-2-(1,1-difluoroethyl)isonicotinamide], inhibition was half-maximal at 0.61 nM (IC50).

Take `Cc1ccc(NC(=O)c2ccnc(C(C)(F)F)c2)cc1-c1ccc2c(c1)N1CCOC[C@H]1[C@@](C)(N)C2` (racemic) [Example 93, (rac)-(anti)-N-(3-(5-amino-5-methyl-1,2,4,4a,5,6-hexahydro-[1,4]oxazino[4,3-a]quinolin-9-yl)-4-methylphenyl)-2-(1,1-difluoroethyl)isonicotinamide]: the 50% inhibitory concentration (IC50) came to 0.025 nM.

`Cc1ccc(NC(=O)c2ccnc(C(F)(F)F)c2)cc1-c1cc2n(c(=O)c1)CCC1COCCN21` (racemic) [Example 94, (rac)-N-(4-methyl-3-(8-oxo-2,4,4a,5,6,8-hexahydro-1H-pyrido[2′,1′:2,3]pyrimido[6,1-c][1,4]oxazin-10-yl)phenyl)-2-(trifluoromethyl)isonicotinamide] registered an IC50 of 0.019 nM.

Compound `Cc1ncc(NC(=O)c2ccnc(C(C)(F)F)c2)cc1-c1ccc2c(c1)N1CCOCCC1CC2O` (racemic) [Example 96, (rac)-2-(1,1-difluoroethyl)-N-(5-(7-hydroxy-1,2,5,5a,6,7-hexahydro-4H-[1,4]oxazepino[4,5-a]quinolin-10-yl)-6-methylpyridin-3-yl)isonicotinamide] had a 50% inhibitory concentration (IC50) of 0.053 nM.

In the case of `Cc1ccc(NC(=O)c2ccnc(C(C)(F)F)c2)cc1-c1ccc2c(c1)N1CCOC[C@@H]1[C@@H](C(=O)O)C2` (racemic) [Example 100, (rac)-(cis)-9-(5-(2-(1,1-difluoroethyl)isonicotinamido)-2-methylphenyl)-1,2,4,4a,5,6-hexahydro-[1,4]oxazino[4,3-a]quinoline-5-carboxylic Acid], the midpoint of inhibition, the IC50, lay at 0.037 nM.

As for `Cc1ccc(NC(=O)c2ccnc(C(F)(F)F)c2)cc1-c1cnc2c(c1)N1CCOC[C@H]1C[C@@H]2O` (racemic) [Example 101, rac-cis-N-(3-(6-hydroxy-1,2,4,4a,5,6-hexahydro-[1,4]oxazino[4,3-a][1,5]naphthyridin-9-yl)-4-methylphenyl)-2-(trifluoromethyl)isonicotinamide], the half-inhibitory concentration (IC50) worked out at 0.026 nM.

As to `Cc1ncc(NC(=O)c2cccc(C(F)(F)F)c2)cc1-c1cnc2c(c1)N1CCOC[C@H]1C[C@@H]2O` (racemic) [Example 104, rac-cis-N-(5-(6-Hydroxy-1,2,4,4a,5,6-hexahydro-[1,4]oxazino[4,3-a][1,5]naphthyridin-9-yl)-6-methylpyridin-3-yl)-3-(trifluoromethyl)benzamide], the IC50 is 0.044 nM.

`Cc1ccc(NC(=O)c2ccnc(C(C)(F)F)c2)cc1-c1cnc2c(c1)N1CCOCC1CC2O` (racemic) [Example 107, rac-cis-2-(1,1-Difluoroethyl)-N-(3-(6-hydroxy-1,2,4,4a,5,6-hexahydro-[1,4]oxazino[4,3-a][1,5]naphthyridin-n-9-yl)-4-methylphenyl)isonicotinamide] registered an IC50 of 0.019 nM.

Compound `Cc1ccc(NC(=O)c2ccnc(C(F)(F)F)c2)cc1-c1cnc2c(c1)N1CCOCC1CC2=O` (racemic) [Example 110, rac-N-(4-methyl-3-(6-oxo-1,2,4,4a,5,6-hexahydro-[1,4]oxazino[4,3-a][1,5]naphthyridin-n-9-yl)phenyl)-2-(trifluoromethyl)isonicotinamide] registered a 50% inhibitory concentration (IC50) of 0.002 nM.

For `Cc1ccc(NC(=O)c2ccnc(C(F)(F)F)c2)cc1-c1cnc2c(c1)N1CCOCC1CC2(F)F` (racemic) [Example 111, rac-N-(3-(6,6-Difluoro-1,2,4,4a,5,6-hexahydro-[1,4]oxazino[4,3-a][1,5]naphthyridin-9-yl)-4-methylphenyl)-2-(trifluoromethyl)isonicotinamide], the 50% inhibitory concentration (IC50) was 0.0054 nM.

Compound `Cc1ccc(NC(=O)c2ccnc(C(F)(F)F)c2)cc1-c1cnc2c(c1)N1CCOCC1C(=O)N2` (racemic) [Example 112, rac-N-(4-Methyl-3-(5-oxo-1,2,4,4a,5,6-hexahydropyrido[2′,3′:5,6]pyrazino[2,1-c][1,4]oxazin-9-yl)phenyl)-2-(trifluoromethyl)isonicotinamide] returned an IC50 of less than 0.0017 nM.

The compound `CCN1C(=O)C2COCCN2c2cc(-c3cc(NC(=O)c4ccnc(C(F)(F)F)c4)ccc3C)cnc21` (racemic) [Example 113, rac-N-(3-(6-Ethyl-5-oxo-1,2,4,4a,5,6-hexahydropyrido[2′,3′:5,6]pyrazino[2,1-c][1,4]oxazin-9-yl)-4-methylphenyl)-2-(trifluoromethyl)isonicotinamide] had an IC50 of 0.0084 nM.

`Cc1ccc(NC(=O)c2ccnc(C(C)(F)F)c2)cc1-c1cnc2c(c1)N1CCOC[C@@H]1[C@H](CO)C2` (racemic) [Example 116, rac-trans-2-(1,1-Difluoroethyl)-N-(3-(5-(hydroxymethyl)-1,2,4,4a,5,6-hexahydro-[1,4]oxazino[4,3-a][1,5]naphthyridin-9-yl)-4-methylphenyl)isonicotinamide] came in with a 50% inhibitory concentration (IC50) of less than 0.0017 nM.

`Cc1ncc(NC(=O)c2cccc(C(F)(F)F)c2)cc1-c1cnc2c(c1)N1CCOC[C@@H]1[C@H](CO)C2` (racemic) [Example 119, rac-trans-N-(5-(5-(Hydroxymethyl)-1,2,4,4a,5,6-hexahydro-[1,4]oxazino[4,3-a][1,5]naphthyridin-9-yl)-6-methylpyridin-3-yl)-3-(trifluoromethyl)benzamide] displayed a concentration for half-maximal inhibition (IC50) of 0.01 nM.

The compound `Cc1ccc(NC(=O)c2ccnc(C(F)(F)F)c2)cc1-c1cnc2c(c1)N1CCOCC1C(CO)C2` (racemic) [Example 123, rac-cis-N-(3-(5-(hydroxymethyl)-1,2,4,4a,5,6-hexahydro-[1,4]oxazino[4,3-a][1,5]naphthyridin-9-yl)-4-methylphenyl)-2-(trifluoromethyl)isonicotinamide] gave a 50% inhibitory concentration (IC50) of 0.0052 nM.

For `Cc1ccc(NC(=O)c2ccnc(C(C)(F)F)c2)cc1-c1cnc2c(c1)N1CCOCC1CC(=O)N2` (racemic) [Example 124, rac-2-(1,1-Difluoroethyl)-N-(4-methyl-3-(6-oxo-1,2,4a,5,6,7-hexahydro-4H-[1,4]oxazino[4,3-d]pyrido[2,3-b][1,4]diazepin-10-yl)phenyl)isonicotinamide], the IC50 worked out at 0.0094 nM.

`CCN1C(=O)CC2COCCN2c2cc(-c3cc(NC(=O)c4ccnc(C(C)(F)F)c4)ccc3C)cnc21` (racemic) [Example 125, rac-2-(1,1-Difluoroethyl)-N-(3-(7-ethyl-6-oxo-1,2,4a,5,6,7-hexahydro-4H-[1,4]oxazino[4,3-d]pyrido[2,3-b][1,4]diazepin-10-yl)-4-methylphenyl)isonicotinamide] showed a 50% inhibitory concentration (IC50) of 0.034 nM.

Turning to `CCN1C(=O)CC2COCCN2c2cc(-c3cc(NC(=O)c4ccnc(C(F)(F)F)c4)ccc3C)cnc21` (racemic) [Example 128, rac-N-(3-(7-Ethyl-6-oxo-1,2,4a,5,6,7-hexahydro-4H-[1,4]oxazino[4,3-d]pyrido[2,3-b][1,4]diazepin-10-yl)-4-methylphenyl)-2-(trifluoromethyl)isonicotinamide], the half-inhibitory concentration (IC50) is 0.023 nM.

`CCN1C(=O)CC2COCCN2c2cc(-c3cc(NC(=O)c4cccc(C(F)(F)F)c4)cnc3C)cnc21` (racemic) [Example 131, rac-N-(5-(7-Ethyl-6-oxo-1,2,4a,5,6,7-hexahydro-4H-[1,4]oxazino[4,3-d]pyrido[2,3-b][1,4]diazepin-10-yl)-6-methylpyridin-3-yl)-3-(trifluoromethyl)benzamide] had an IC50 of 0.06 nM.

`CCN1C(=O)C2COCCN2c2cc(-c3cc(NC(=O)c4ccnc(C(F)(F)F)c4)ccc3C)nnc21` (racemic) [Example 132, rac-N-(3-(5-Ethyl-6-oxo-5,6,6a,7,9,10-hexahydropyridazino[3′,4′:5,6]pyrazino[2,1-c][1,4]oxazin-2-yl)-4-methylphenyl)-2-(trifluoromethyl)isonicotinamide] gave an IC50 of 0.14 nM.

`Cc1ccc(NC(=O)c2ccnc(C(C)(F)F)c2)cc1-c1cc2c(nn1)OCC1COCCN21` (racemic) [Example 135, rac-2-(1,1-Difluoroethyl)-N-(4-methyl-3-(6a,7,9,10-tetrahydro-6H-[1,4]oxazino[4,3-d]pyridazino[3,4-b][1,4]oxazin-2-yl)phenyl)isonicotinamide]: the concentration for half-maximal inhibition (IC50) worked out at 0.019 nM.

As for `Cc1ccc(NC(=O)c2ccnc(C(C)(F)F)c2)cc1-c1cc2c(nn1)OC(C)(C)C1COCCN21` (racemic) [Example 136, rac-2-(1,1-Difluoroethyl)-N-(3-(6,6-dimethyl-6a,7,9,10-tetrahydro-6H-[1,4]oxazino[4,3-d]pyridazino[3,4-b][1,4]oxazin-2-yl)-4-methylphenyl)isonicotinamide], the concentration for half-maximal inhibition (IC50) was 0.018 nM.

The compound `Cc1ccc(NC(=O)c2ccnc(C(F)(F)F)c2)cc1-c1cc2c(nn1)OC(C)(C)C1COCCN21` (racemic) [Example 139, rac-N-(3-(6,6-dimethyl-6a,7,9,10-tetrahydro-6H-[1,4]oxazino[4,3-d]pyridazino[3,4-b][1,4]oxazin-2-yl)-4-methylphenyl)-2-(trifluoromethyl)isonicotinamide] registered a concentration for half-maximal inhibition (IC50) of 0.057 nM.

Compound `Cc1ccc(NC(=O)c2ccnc(C(C)(C)F)c2)cc1-c1cnc2c(c1)N1CCOC[C@H]1C[C@@H]2O` (racemic) [Example 141, rac-cis-2-(2-fluoropropan-2-yl)-N-(3-(6-hydroxy-1,2,4,4a,5,6-hexahydro-[1,4]oxazino[4,3-a][1,5]naphthyridin-9-yl)-4-methylphenyl)isonicotinamide] displayed an IC50 of 0.0042 nM.

`Cc1ccc(NC(=O)c2cncc(C(F)(F)F)c2)cc1-c1cnc2c(c1)N1CCOC[C@H]1C[C@@H]2O` (racemic) [Example 144, rac-cis-N-(3-(6-hydroxy-1,2,4,4a,5,6-hexahydro-[1,4]oxazino[4,3-a][1,5]naphthyridin-9-yl)-4-methylphenyl)-5-(trifluoromethyl)nicotinamide] had a half-maximal inhibitory concentration (IC50) of 0.0023 nM.
